Reference: US5739129A, “CCK or gastrin modulating 5-heterocyclic-1, 5 benzodiazepines” (Glaxo Wellcome Inc., priority 1994, dated 1998)

What follows are molecules tested on guinea pig gall bladder (assay: Guinea pig gall bladder assay (contraction of isolated gallbladder rings)). Details: Cavia porcellus, compounds tested at 1 μM, minimum of three determinations, read-out: Contraction (% sulfated CCK-8 maximal response).
Type: cell-based
Description: GUINEA PIG GALL BLADDER ASSAY Tissue Preparation: Gallbladders were removed from guinea pigs sacrificed by cervical dislocation. The isolated gallbladders were cleaned of adherent connective tissue and cut into two rings from each animal (2-4 mm in length). The rings were subsequently suspended in organ chambers containing a physiological salt solution of the following composition (mM): NaCl (118.4); KCl (4.7); MgSO4 ×H2 O (1.2); CaCl2 ×2H2 O (2.5); […] (1.2); NaHCO3 (25) and dextrose (11.1). The bathing solution was maintained at 37° C. and aerated with 95% O2 /5%CO2. Tissues were connected via gold chains and stainless steel mounting wires to isometric force displacement transducers (Grass, Model FT03 D). Responses were then recorded on a polygraph (Grass, Model 7E). […] Assay: Rings were gradually stretched (over a 120 min. period) to a basal resting tension of 1 gm which was maintained throughout the experiment. During the basal tension adjustment period, the rings were exposed to acetylcholine (ACH, 10^-6 M) four times to verify tissue contractility. The tissues were then exposed to a submaximal dose of sulfated CCK-8 (Sigma, 3×10^-9 M). After obtaining a stable response, the tissues were washed out 3 times rapidly and every 5 to 10 minutes for 1 hour to reestablish a stable baseline. Compounds were dissolved in dimethylsulfoxide (DMSO) then diluted with water and assayed via a cumulative concentration-response curve to test compound (10^-11 to 3×10^-6 M) followed by a concentration-response curve to sulfated CCK-8 (10^-10 to 10^-6 M) in the presence of the highest dose of the test compound. As a final test, ACH (10 mM) was added to induce maximal contraction. A minimum of three determinations of activity were made for each test compound. The compounds were tested at a concentration of 1 μM and the results expressed as % sulfated CCK-8 maximal response.
In the case of `COc1ccc(N(C(=O)CN2C(=O)C(NC(=O)c3cc4ccccc4[nH]3)C(=O)N(c3ccccn3)c3ccccc32)C(C)C)cc1` (single isomer, unassigned) [Example 3, (+) or (-) 1H-Indole-2-carboxylic acid {1-[Isopropyl-(4-methoxy-phenyl)-carbamoylmethyl]-2,4-dioxo-5-pyridin-2-yl-2,3,4,5-tetrahydro-1H-benzo[b][1,4]diazepin-3-yl}-amide], the Emax at 1 µM is reported as 83%.
In the case of `COc1ccc(N(C(=O)CN2C(=O)C(NC(=O)c3cc4ccccc4[nH]3)C(=O)N(c3cccnc3)c3ccccc32)C(C)C)cc1` (single isomer, unassigned) [Example 14, (+) or (-) 1H-Indole-2-carboxylic acid [I-[isopropyl-(4-methoxyphenyl)-carbamoylmethyl]-2,4-dioxo-5-pyridin-3-yl-2,3,4,5-tetrahydro-1H-benzo[b][1,4]diazepin-3-yl]amide], the Emax at 1 µM is reported as 84%.
For `COc1ccc(N(C(=O)CN2C(=O)C(NC(=O)Nc3ccccc3)C(=O)N(c3ccccn3)c3ccccc32)C(C)C)cc1` (stereo not shown) [Example 1, 2-[2,4-Dioxo-3-(3-phenyl-ureido)-5-pyridin-2-yl-2,3,4,5-tetrahydrobenzo[b][1,4]diazepin-1-yl]-N-isopropyl-N-(4-methoxy-phenyl)-acetamide], the Emax at 1 µM was 91%.
In the case of `COc1ccc(N(C(=O)CN2C(=O)C(NC(=O)c3cc4ccccc4[nH]3)C(=O)N(c3ccccn3)c3ccccc32)C(C)C)cc1` (stereo not shown) [Example 2, 1H-Indole-2-carboxylic acid {1-[Isopropyl-(4-methoxy-phenyl)-carbamoylmethyl]-2,4-dioxo-5-pyrdin-2-yl-2,3,4,5-tetrahydro-1H-benzo[b][1,4]diazepin-3-yl}-amide], the Emax at 1 µM is reported as 64%.
For `COc1ccc(N(C(=O)CN2C(=O)C(NC(=O)c3cc4ccccc4[nH]3)C(=O)N(c3ncccn3)c3ccccc32)C(C)C)cc1` (stereo not shown) [Example 5, 1H-Indole-2-carboxylic acid {1-[Isopropyl-(4-methoxy-phenyl)-carbamoylmethyl]-2,4-dioxo-5-pyrimidin-2-yl-2,3,4,5-tetrahydro-1H-benzo[b][1,4]diazepin-3-yl}-amide], the Emax at 1 µM was 51%.
Molecule `COc1ccc(N(C(=O)CN2C(=O)C(NC(=O)c3cc4ccccc4[nH]3)C(=O)N(c3c(C)nn(C)c3C)c3ccccc32)C(C)C)cc1` (stereo not shown) [Example 6, 1H-Indole-2-carboxylic acid [1-[isopropyl-(4-methoxy-phenyl)-carbamoylmethyl]-2,4-dioxo-5-(1,3,5-trimethyl-1H-pyrazol-4-yl)-2,3,4,5-tetrahydro-1H-benzo[b][1,4]diazepin-3-yl]-amide] has an Emax at 1 µM of 32%.
`COc1ccc(N(C(=O)CN2C(=O)C(NC(=O)c3cc4ccccc4[nH]3)C(=O)N(c3cccnc3)c3ccccc32)C(C)C)cc1` (stereo not shown) [Example 7, 1H-Indole-2-carboxylic acid {1[isopropyl-(4-methoxy-phenyl)-carbamoylmethyl]-2,4-dioxo-5-pyridin-3-yl-2,3,4,5-tetrahydro-1H-benzo[b][1,4]diazepin-3-yl}-amide] showed an Emax at 1 µM of 77%.
Molecule `COc1ccc(N(C(=O)CN2C(=O)C(NC(=O)Nc3ccccc3)C(=O)N(c3cccnc3)c3ccccc32)C(C)C)cc1` (stereo not shown) [Example 8, 2-[2,4-dioxo-3-(3-phenyl-ureido)-5-pyridin-3-yl-2,3,4,5-tetrahydrobenzo[b][1,4]diazepin-1-yl]-N-isopropyl-N-(4-methoxy-phenyl) acetamide] has an Emax at 1 µM of 81%.
For `COc1ccc(N(C(=O)CN2C(=O)C(NC(=O)Nc3cccc(C(=O)O)c3)C(=O)N(c3cccnc3)c3ccccc32)C(C)C)cc1` (stereo not shown) [Example 10, 3-(3-{1-[isopropyl-(4-methoxy-phenyl)-carbamoylmethyl]-2,4-dioxo-5-pyridin-3-yl-2,3,4,5-tetrahydro-1H-benzo[b][1,4]diazepin-3-yl}-ureido)-benzoic acid], the Emax at 1 µM was 83%.
In the case of `COc1ccc(N(C(=O)CN2C(=O)C(NC(=O)c3cc4ccccc4[nH]3)C(=O)N(c3ccncc3)c3ccccc32)C(C)C)cc1` (stereo not shown) [Example 11, 1H-Indole-2-carboxylic acid {1-[Isopropyl-(4-methoxy-phenyl)-carbamoylmethyl]-2,4-indoledioxo-5-pyridin4-yl-2,3,4,5,5a, 9a-hexahydro-1H-benzo[b][1,4]diazepin-3-yl}-amide], the Emax at 1 µM is reported as 67%.
Molecule `COc1ccc(N(C(=O)CN2C(=O)C(NC(=O)Nc3cccc(C(=O)O)c3)C(=O)N(c3cccnc3)c3cc(F)ccc32)C(C)C)cc1` (stereo not shown) [Example 13, 3-(3-{7-Fluoro-1-[isopropyl-(4-methoxy-phenyl)-carbamoylmethyl]-2,4-dioxo-5-pyridin-3-yl-2,3,4,5-tetrahydro-1H-benzo[b][1,4]diazepin-3-yl}-ureido)-benzoic acid] has an Emax at 1 µM of 96%.

Same assay, conditions: compounds tested at 1 μM, minimum of three determinations
With `COc1ccc(N(C(=O)CN2C(=O)C(NC(=O)c3cc4ccccc4[nH]3)C(=O)N(c3ccccn3)c3ccccc32)C(C)C)cc1` (single isomer, unassigned) [Example 4, (+) or (-) 1H-Indole-2-carboxylic acid {1-[Isopropyl-(4-methoxy-phenyl)-carbamoylmethyl]-2,4-dioxo-5-pyridin-2-yl-2,3,4,5-tetrahydro-1H-benzo[b][1,4]diazepin-3-yl}-amide] the “Contraction (% sulfated CCK-8 maximal response)” value was 67%.
In the case of `COc1ccc(N(C(=O)CN2C(=O)C(NC(=O)c3cc4ccccc4[nH]3)C(=O)N(c3cccnc3)c3ccccc32)C(C)C)cc1` (single isomer, unassigned) [Example 15, (+) or (-) 1H-Indole-2-carboxylic acid [I-[isopropyl-(4-methoxyphenyl)-carbamoylmethyl]-2,4-dioxo-5-pyridin-3-yl-2,3,4,5-tetrahydro-1H-benzo[b][1,4]diazepin-3-yl]amide], the “Contraction (% sulfated CCK-8 maximal response)” value is reported as 93%.
